Calls of active or inactive are those of the source. The rule behind the calls is not given here.
Legend:
[1] = test system: H4; test: Induction of amyloid beta (1 to 40) secretion in human H4 cells overexpressing APP incubated for overnight by ELISA; assay type: functional, cell-based
[2] = test system: SH-SY5Y; test: Induction of amyloid beta (1 to 40) secretion in human SH-SY5Y cells incubated for overnight by ELISA; assay type: functional, cell-based
[3] = test system: H4; test: Induction of amyloid beta (1 to 42) secretion in human H4 cells overexpressing APP incubated for overnight by ELISA; assay type: functional, cell-based
[4] = test system: SH-SY5Y; test: Induction of amyloid beta (1 to 42) secretion in human SH-SY5Y cells incubated for overnight by ELISA; assay type: functional, cell-based
[5] = organism: Homo sapiens; test: Inhibition of monoamine oxidase (unknown origin)

CO/C(=C\c1cc(Cl)c(O)c(Cl)c1)C(=O)O
Activity [1]: Dose-dependent effect
Activity [2]: inactive
Activity [3]: Dose-dependent effect
Activity [4]: inactive
inhibition [5]: inactive

CO/C(=C\c1ccc(O)c(Cl)c1)C(=O)O
Activity [1]: Dose-dependent effect
Activity [2]: inactive
Activity [3]: Dose-dependent effect
Activity [4]: inactive
inhibition [5]: inactive

— ChEMBL document CHEMBL4619732, “Two new secondary metabolites, saccharochlorines A and B, from a marine bacterium Saccharomonospora sp. KCTC-19160” (Bioorg Med Chem Lett, 2020)
